Data: article PMC6168434 (European journal of medicinal chemistry, 2018)

Assays:
cancer cells = test: Western blot and flow cytometry analysis of treated cancer cells; type: cell-based; details: Figure S4
hcCP β5 in MCF7 cells = test: Cellular infiltration: β5 inhibition in intact versus lysed MCF7 cells; type: cell-based, human; details: one hour treatment, relative to 1
[1] = target: human immunoproteasome hiβ5 (Homo sapiens, UniProt P20618+P28062); test: Purified human immunoproteasome β5; type: biochemical; details: purified human immunoproteasomes 8 μg/mL, Suc-LLVY-AMC
[2] = target: yeast 20S proteasome (yCP) yβ5 (Saccharomyces cerevisiae, UniProt P23724+P30656); test: Purified yeast proteasome inhibition, yβ5; type: biochemical
MCF7 = details: MCF7, relative to CysB; cited from earlier work

| Structure (SMILES) | apoptosis (flow cytometry) (cancer cells) | cell cycle (flow cytometry) (cancer cells) | ubiquitinated proteins (Western blot) (cancer cells) | times more capable of crossing the cell membrane than 1 (hcCP β5 in MCF7 cells) | isoform preference hiβ5 versus yβ5 [1] | fold decreased IC50 for yβ5 versus yβ1 [2] [fold] | times more cytotoxic than CysB (MCF7) |
| --- | --- | --- | --- | --- | --- | --- | --- |
| CC[C@H](C)[C@@H]1C(=O)O[C@H]1C(=O)N[C@H](C(=O)N[C@H](C(=O)OCc1ccccc1)C(C)C)C(C)C [Compound 2, benzyl((2R,3S)-3-((S)-sec-butyl)-4-oxooxetane-2-carbonyl)-L-valyl-L-valinate] | induced apoptosis | arrested cells in the G2/M phase | accumulation of ubiquitinated proteins | approximately 10 times | slight preference for hiβ5 |  |  |
| CC(C)[C@H](NC(=O)[C@@H](NC(=O)[C@@H]1OC(=O)[C@H]1C(C)C)C(C)C)C(=O)O [Cystargolide B, reference compound] |  |  |  |  |  | 50 |  |
| CC[C@H](C)[C@@H]1C(=O)O[C@H]1C(=O)N[C@H](C(=O)N[C@@H](COCc1ccccc1)C(=O)OCc1ccccc1)C(C)C [Compound 5k, benzylO-benzyl-N-(((2R,3S)-3-((S)-sec-butyl)-4-oxooxetane-2-carbonyl)-L-valyl)-L-serinate] |  |  |  |  | slight preference for hiβ5 |  |  |
| CC(C)[C@H](NC(=O)[C@@H]1OC(=O)[C@H]1C(C)C)C(=O)N[C@H](C(=O)OCc1ccccc1)C(C)C [Compound 1] | induced apoptosis | arrested cells in the G2/M phase | accumulation of ubiquitinated proteins |  |  |  | over 10 times |
